Assay results as given in PMC11859264, “Discovery of a Novel Multitarget Analgesic Through an In Vivo-Guided Approach” (Pharmaceuticals, 2025).

Tests used:
[1] = tested on: spinal nerve ligation (SNL) model; experiment: Spinal nerve ligation (SNL) neuropathic pain model, von Frey paw withdrawal threshold; type: in vivo; details: SNL rats; for maximum possible effect (MPE), withdrawal threshold: 3 h after administration
Source text: The SNL model, also known as the Chung model, is a widely used animal model for studying neuropathic pain, a chronic pain condition resulting from nervous system damage. This model replicates human neuropathic pain, which can stem from nerve injuries due to conditions like diabetes, shingles, or spinal cord injury. In the SNL model, the L5 or L6 spinal nerve is surgically ligated to induce nerve injury, leading to the development of long-lasting neuropathic pain symptoms in the animal. Following the nerve injury, animals display pain-related behaviors that mirror those seen in human neuropathic pain conditions, such as allodynia and hyperalgesia. Behavioral assessments conducted 14 days after surgery evaluate the animal’s sensitivity to mechanical stimuli using Von Frey filaments to quantify pain responses and measure mechanical allodynia.
In this experiment, compound 29 was administered intraperitoneally at two different doses, 50 and 100 mg/kg, and its analgesic effects were assessed by measuring the 50% withdrawal threshold at multiple time points (1, 3, and 5 h post-administration) (Figure 3A). […]
Spinal nerve ligation (SNL) was performed following the method described by Kim and Chung. […] Following the surgery, the rats were returned to their cages and monitored during recovery.
Behavioral signs indicative of neuropathic pain (mechanical allodynia) were assessed in all rats for two weeks postoperatively. The paw withdrawal threshold (PWT) was measured using von Frey filaments (Stoelting, Wood Dale, IL, USA) and the up–down method. […] A brisk withdrawal or paw flinching was recorded as a positive response. […]
Figure 3 Antinociceptive effect of compound 29 on mechanical allodynia in SNL model rats. (A) The mechanical allodynia was induced by spinal nerve ligation and evaluated by measuring paw withdrawal thresholds in response to von Frey filament stimuli. […] The MPE was calculated using the following formula: MPE (%) = [(post-treated value − pre-treatment threshold) × 100]/(maximum possible threshold − pre-treatment threshold). Data are expressed as mean ± SEM. […]

[2] = molecular target: T1, Adrenergic α2A (Homo sapiens, UniProt P08913); experiment: Radioligand binding, [3H] Rauwolscine, Eurofins
T1 sequence (P08913 1-465): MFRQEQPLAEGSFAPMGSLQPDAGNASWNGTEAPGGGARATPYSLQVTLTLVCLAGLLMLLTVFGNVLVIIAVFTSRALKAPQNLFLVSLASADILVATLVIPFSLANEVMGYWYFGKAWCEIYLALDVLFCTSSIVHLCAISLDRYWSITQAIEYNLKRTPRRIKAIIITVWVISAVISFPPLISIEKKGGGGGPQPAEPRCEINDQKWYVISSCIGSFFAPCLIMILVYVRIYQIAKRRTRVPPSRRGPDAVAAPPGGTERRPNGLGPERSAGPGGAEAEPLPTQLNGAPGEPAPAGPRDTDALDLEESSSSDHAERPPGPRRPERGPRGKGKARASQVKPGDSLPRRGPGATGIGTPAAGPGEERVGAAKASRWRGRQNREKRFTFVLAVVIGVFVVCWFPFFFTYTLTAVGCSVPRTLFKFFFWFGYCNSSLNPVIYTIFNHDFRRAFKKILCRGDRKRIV

[3] = molecular target: T2, Transporter, Serotonin (SERT) (Homo sapiens, UniProt P31645); experiment: Radioligand binding, [3H] Paroxetine, Eurofins
T2 construct: host or cells: HEK-293 cells
T2 sequence (P31645 whole entry): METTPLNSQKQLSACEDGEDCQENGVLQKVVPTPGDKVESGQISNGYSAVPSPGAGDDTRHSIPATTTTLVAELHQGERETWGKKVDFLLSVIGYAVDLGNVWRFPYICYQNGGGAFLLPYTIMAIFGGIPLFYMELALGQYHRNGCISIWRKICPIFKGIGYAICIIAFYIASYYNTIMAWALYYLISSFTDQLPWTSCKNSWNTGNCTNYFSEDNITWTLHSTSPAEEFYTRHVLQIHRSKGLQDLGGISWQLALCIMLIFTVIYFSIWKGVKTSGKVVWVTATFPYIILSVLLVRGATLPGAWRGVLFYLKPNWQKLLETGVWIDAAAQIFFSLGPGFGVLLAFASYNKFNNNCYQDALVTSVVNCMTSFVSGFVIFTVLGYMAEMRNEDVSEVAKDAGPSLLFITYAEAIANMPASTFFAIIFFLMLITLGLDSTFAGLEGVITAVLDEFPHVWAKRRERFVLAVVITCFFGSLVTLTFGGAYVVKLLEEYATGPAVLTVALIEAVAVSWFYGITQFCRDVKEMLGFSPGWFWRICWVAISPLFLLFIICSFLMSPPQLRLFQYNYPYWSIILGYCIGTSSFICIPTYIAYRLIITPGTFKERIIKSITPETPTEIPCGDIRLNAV

[4] = molecular target: hERG (Homo sapiens, UniProt Q12809); experiment: in vitro
Chain of hERG (Q12809 whole entry): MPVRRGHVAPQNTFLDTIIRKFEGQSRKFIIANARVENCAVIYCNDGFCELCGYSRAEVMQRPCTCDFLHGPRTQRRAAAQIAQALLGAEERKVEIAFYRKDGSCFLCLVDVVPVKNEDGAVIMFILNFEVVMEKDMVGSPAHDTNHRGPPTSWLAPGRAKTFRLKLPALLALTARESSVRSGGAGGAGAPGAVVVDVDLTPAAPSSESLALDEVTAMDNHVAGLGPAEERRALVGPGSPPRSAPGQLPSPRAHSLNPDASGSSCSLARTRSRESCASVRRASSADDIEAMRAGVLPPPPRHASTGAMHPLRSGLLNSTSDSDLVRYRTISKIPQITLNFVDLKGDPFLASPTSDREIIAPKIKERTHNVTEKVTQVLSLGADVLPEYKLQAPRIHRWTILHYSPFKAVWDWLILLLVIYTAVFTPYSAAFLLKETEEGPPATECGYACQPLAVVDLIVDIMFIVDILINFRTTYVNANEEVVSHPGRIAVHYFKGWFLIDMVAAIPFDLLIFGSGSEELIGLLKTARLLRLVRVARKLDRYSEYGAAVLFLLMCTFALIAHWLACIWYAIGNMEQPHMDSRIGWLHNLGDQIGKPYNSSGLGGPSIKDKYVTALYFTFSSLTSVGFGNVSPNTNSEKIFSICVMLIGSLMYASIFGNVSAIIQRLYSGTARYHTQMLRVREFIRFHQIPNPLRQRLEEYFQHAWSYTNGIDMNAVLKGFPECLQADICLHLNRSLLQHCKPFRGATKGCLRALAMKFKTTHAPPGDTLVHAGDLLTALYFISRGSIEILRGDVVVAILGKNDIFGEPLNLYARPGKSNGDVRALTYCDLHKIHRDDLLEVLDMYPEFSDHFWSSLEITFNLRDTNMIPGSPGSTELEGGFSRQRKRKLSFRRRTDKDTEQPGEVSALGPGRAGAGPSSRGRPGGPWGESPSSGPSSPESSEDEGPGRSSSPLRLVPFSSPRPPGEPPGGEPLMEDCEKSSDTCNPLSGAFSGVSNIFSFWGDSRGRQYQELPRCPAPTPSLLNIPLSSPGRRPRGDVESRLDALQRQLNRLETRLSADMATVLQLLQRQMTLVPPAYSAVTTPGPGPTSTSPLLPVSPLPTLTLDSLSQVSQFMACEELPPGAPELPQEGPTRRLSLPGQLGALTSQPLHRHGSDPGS

[5] = molecular target: T3, Transporter, Norepinephrine (NET) (Homo sapiens, UniProt P23975); experiment: Radioligand binding, [125I] RTI-55, Eurofins
T3 construct: host or cells: MDCK cells
T3 sequence (P23975 whole entry): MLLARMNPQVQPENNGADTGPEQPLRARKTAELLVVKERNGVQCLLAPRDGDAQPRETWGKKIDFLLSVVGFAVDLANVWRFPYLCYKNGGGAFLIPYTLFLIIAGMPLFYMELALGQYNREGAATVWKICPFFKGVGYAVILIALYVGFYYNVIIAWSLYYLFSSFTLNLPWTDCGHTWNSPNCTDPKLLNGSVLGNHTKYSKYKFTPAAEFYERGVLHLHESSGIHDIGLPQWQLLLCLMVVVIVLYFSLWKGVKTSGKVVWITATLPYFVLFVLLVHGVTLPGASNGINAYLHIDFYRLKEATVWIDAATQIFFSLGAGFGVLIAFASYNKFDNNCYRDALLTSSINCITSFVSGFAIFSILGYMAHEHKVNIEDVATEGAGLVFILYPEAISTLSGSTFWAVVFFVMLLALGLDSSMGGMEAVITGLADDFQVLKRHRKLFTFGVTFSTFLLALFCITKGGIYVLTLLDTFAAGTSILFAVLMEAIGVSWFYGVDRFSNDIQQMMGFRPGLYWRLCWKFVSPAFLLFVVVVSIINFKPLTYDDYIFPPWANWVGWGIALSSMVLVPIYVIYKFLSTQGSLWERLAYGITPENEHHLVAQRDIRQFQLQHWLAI

[6] = tested on: panel of 47 drug target molecules; experiment: Screening against a panel of pain-related drug targets at 10 μM; type: binding
Protocol: To elucidate the mechanism of action of compound 29 in producing analgesic effects, its inhibitory effects were systematically evaluated through a screening process. The compound was tested at a concentration of 10 μM against a diverse panel of 47 drug target molecules that are closely associated with pain modulation pathways.
The screening of pain-related receptors for the mechanism of action study of compound 29 was conducted by outsourcing the experiment to Eurofins (https://www.eurofins.com, accessed on 30 July 2024). Methods employed in this study have been adapted from the scientific literature to maximize reliability and reproducibility. Reference standards were run as an integral part of each assay to ensure the validity of the results obtained. […] Where presented, IC50 values were determined by a non-linear, least squares regression analysis using MathIQTM (ID Business Solutions Ltd., Woking, Surrey, UK). Where inhibition constants (Ki) are presented, the Ki values were calculated using the equation of Cheng and Prusoff using the observed IC50 of the tested compound, the concentration of radioligand (*) employed in the assay, and the historical values for the KD of the ligand (obtained experimentally at Eurofins Panlabs, Inc.). Where presented, the Hill coefficient (nH), defining the slope of the competitive binding curve, was calculated using MathIQTM.

`N#Cc1ccc2[nH]cc(C(=O)NCCN3CCN(c4ccc5ccccc5n4)CC3)c2c1` [Compound 29, 5-Cyano-N-(2-(4-(quinolin-2-yl)piperazin-1-yl)ethyl)-1H-indole-3-carboxamide] was tested, and the “maximum possible effect (MPE), withdrawal threshold” value ([1]; 50 mg/kg intraperitoneal) was 24%, the “maximum possible effect (MPE), withdrawal threshold” value ([1]; 100 mg/kg intraperitoneal) was 45% and the “time of most pronounced analgesic effect (Tmax)” value ([1]; 50 and 100 mg/kg intraperitoneal) was 3 h. The “nH (Hill coefficient)” value ([2]; Adrenergic α2A) was 1.02, the Ki ([2]; Adrenergic α2A, Cheng and Prusoff) was 4.11 µM and the IC50 ([2]; Adrenergic α2A, human recombinant CHO-Ki cells) was 8.22 µM. For the same compound, the “times the activity of reference compound yohimbine” value ([2]; ratio of Ki values) was 0.25, the “nH (Hill coefficient)” value ([3]; SERT) was 0.84 and the Ki ([3]; SERT, Cheng and Prusoff) was 130 nM. For the same compound, the IC50 ([3]; SERT, human recombinant HEK-293 cells) was 780 nM, the “times more potent at SERT compared to fluoxetine” value ([3]; ratio of Ki values) was 13 and the inhibition at 4 h, 10 µM [4] was 52.7%. The “nH (Hill coefficient)” value ([5]; NET) was 0.73, the Ki ([5]; NET, Cheng and Prusoff) was 380 nM and the IC50 ([5]; NET, human recombinant MDCK cells) was 380 nM. For the same compound, the “times more potent at NET compared to desipramine” value ([5]; ratio of Ki values) was 3 and the “number of targets with more than 50% inhibition” value [6] was 16.
